For one experiment, the system named is NK Falkone corn seeds. In words: Corn seed germination under cold stress (15° C.). In kind it is in vivo. Conditions: for change in vivo at 50 µM: rate 50 μM; for change in vivo at 250 µM: rate 250 μM. As for the experimental part:
The effect of compounds of Formula (I) on the germination of NK Falkone corn seeds under cold stress was evaluated as follows.
NK Falkone corn seeds were sorted by size using 2 sieves, one excluding very big seeds and the other with round holes of 8 to 9 mm diameter. The seeds retained by the latter sieve are used for the germination test.
The corn seeds were placed in 24 well plates (each plate is considered as one experimental unit or replicate). Germination is initiated by the addition of 250 μl of distilled water containing 0.5% DMSO per well as a mean for compound solubilization. 8 replicates (ie, 8 plates) were used for each treatment characterization. Plates were sealed using seal foil (Polyolefin Art. Nr. 900320) from HJ-BIOANALYTIK. All plates were placed horizontally on trolleys in a climatic chamber at 15° C. or 23° C. in complete darkness. The experiment is laid out in a completely randomized design in climatic chamber with 75% Relative Humidity. Foils are pierced, one hole per well using a syringe after 72 hours for experiments performed at 15° C. and after 24 hours for experiments performed at 23° C.
Germination is followed over time by taking photographs at different time points. Image analysis is done automatically with a macro developed using the Image J software. A dynamic analysis of germination is carried out by fitting a logistic curve to the relationship between % germination and time for each plate (T50 parameter).
T50 is the time needed for half the seed population to be germinated. A negative value of T50 represents a faster germination rate. The mean of T50 parameters is calculated for the 8 replicates and the kinetic parameter is determined for each germination curve. Data in bold indicate germination enhancing statistically significant differences between treated seeds and control (empty vehicle treated) T50 values (P<0.05) as outlined in Table 7.

The test system of experiment [1] is Orobanche cumana Wallr. seeds. In words: Orobanche seed germination. In kind it is in vivo. The conditions noted are these: preconditioned O. cumana seeds, 10 days at 20° C. in the dark, N = 5 × 100 seeds, control (0.01% DMSO) 0.75% germination. As for the experimental part:
The effect of the compounds of Formula (I) on the germination of Orobanche cumana Wallr. seeds was evaluated on glass fibre filter paper (GFFP) in petri dishes. Seeds were pre-conditioned at moisture and suitable temperature to become responsive to the specific chemical germination stimulants.
Test compounds were dissolved in DMSO (10 000 mgl^−1) and stored at room temperature in a desiccator with desiccants. The stock solutions were dissolved with sterile deionised water to the appropriate final test concentration.
Seeds of O. cumana race ‘F’ were collected from sunflower fields in Manzanilla (Seville, Spain) in 2008 (seed lot IN153) and stored at room temperature. To separate seeds from heavy organic debris, a modified sucrose floatation technique as described by Hartman & Tanimonure (Plant Disease (1991), 75, 494) was applied. Seeds were filled into a separation funnel and stirred in water. When seeds floated to the surface, the water fraction containing heavy debris was discarded. Seeds were re-suspended in 2.5 M sucrose solution (specific gravity of 1.20) and heavy debris was allowed to settle down for 60 minutes. After removing debris, seeds were disinfected in 1% sodium hypochlorite solution and 0.025% (v/v) Tween 20 for 2 minutes. The seeds were decanted onto two layers of cheese cloth, rinsed with sterile deionised water and re-suspended in sterile deionised water. 2 mL of the seed suspension containing approximately 150 to 400 seeds was spread evenly on two layers of sterile glass fiber filter paper disc ([…]) in Petri dishes ( ? 9 cm). After wetting the discs with 3 mL sterile deionised water, petri dishes were sealed with parafilm. Seeds were incubated for 10 days at 20° C. in the dark for seed conditioning. The upper disc with conditioned seeds was briefly dried, transferred to a petri dish lined with a dry GFFP disc, and wetted with 6 mL of the appropriate test solution. The compounds of Formula (I) were tested at concentrations of 0.01, 0.1, and 1 mg/L. The strigolactone analogue GR24 (commercially available as a mixture of isomers) was included as positive control and 0.01% DMSO as negative control. All treatments were tested in five replicates. Seeds were re-incubated at 20° C. in the dark and examined for germination 10 days later.
The radicles of germinated seeds were stained for 5 minutes with blue ink (PELIKAN #4001, Germany) in 5% acetic acid according to Long et al (Seed Science Research (2008), 18, 125). After staining, seeds were photographed using a camera stand mounted with a digital SLR camera (Canon EOS 5D). Germination of 100 seeds per replicate was evaluated on digital images. Seeds were considered germinated when the radicle protruded from the seed coat.

The mark [2] stands for this setting: Zea mays, rate 2 μM, 15° C., negative value = faster germination, control 0.5% DMSO in water, read-out: T50 (% vs control).
Setting [3] is: Zea mays, rate 10 μM, 15° C., negative value = faster germination, control 0.5% DMSO in water, read-out: T50 (% vs control).
[4] abbreviates: Zea mays, 15° C., negative value = faster germination, control 0.5% DMSO in water, read-out: T50 (% vs control).
Where [5] appears, read: Zea mays, rate 1 μM, 15° C., negative value = faster germination, control 0.5% DMSO in water, read-out: T50 (% vs control).
Setting [6] is: Zea mays, rate 5 μM, 15° C., negative value = faster germination, control 0.5% DMSO in water, read-out: T50 (% vs control).
[7] abbreviates: Zea mays, rate 25 μM, 15° C., negative value = faster germination, control 0.5% DMSO in water, read-out: T50 (% vs control).
[8] abbreviates: Zea mays, read-out: T50 (% vs control).

We go through nine compounds from US9751867B2 (Syngenta Participations AG, priority 2014, dated 2017).

Molecules are shown by their SMILES. Read-outs that look alike come from different tables or passages of the source.

With `CC1=C[C@H](O/C=C2/C(=O)O[C@@H]3c4ccccc4C[C@H]23)OC1=O` [GR-24, reference compound], the “T50 (% vs control)” value is reported as 0.1 % vs control in the experiment on NK Falkone corn seeds (rate 0.08 μM, 15° C., negative value = faster germination, control 0.5% DMSO in water); −2 % vs control with NK Falkone corn seeds (rate 0.4 μM, 15° C., negative value = faster germination, control 0.5% DMSO in water); −0.6 % vs control in the experiment with NK Falkone corn seeds (rate 2 μM, 15° C., negative value = faster germination, control 0.5% DMSO in water); −2.4 % vs control with NK Falkone corn seeds (rate 10 μM, 15° C., negative value = faster germination, control 0.5% DMSO in water).

Take `CC1=CC(O/C=C2/C(=O)N(C(=O)OC(C)(C)C)C3c4ccccc4CC23)N(CC(F)(F)F)C1=O` (centres unmarked) [Ia-7, tert-butyl (3E)-3-[(4-methyl-5-oxo-1-(2,2,2-trifluoroethyl)-2H-pyrrol-2-yl)oxymethylene]-2-oxo-4,8b-dihydro-3aH-indeno[1,2-b]pyrrole-1-carboxylate]: the “Germination (%)” value in experiment [1] (0.01 mg/L) is 34%; in experiment [1] (0.1 mg/L), 8%.

For `CC1=CC(O/C=C2/C(=O)NC3c4ccccc4CC23)N(c2ccccc2)C1=O` (centres unmarked) [Ib-2, (3E)-3-[(4-methyl-5-oxo-1-phenyl-2H-pyrrol-2-yl)oxymethylene]-1,3a,4,8b-tetrahydroindeno[1,2-b]pyrrol-2-one], in the experiment on NK Falkone corn seeds (Zea mays, rate 0.4 μM, 15° C., negative value = faster germination, control 0.5% DMSO in water, read-out: T50 (% vs control)), the change in vivo at 0.4 µM is -0.4%. Also, in the experiment with NK Falkone corn seeds (setting [2]), the change in vivo at 2 µM was -2.5%. Besides, the change in vivo at 10 µM in the experiment on NK Falkone corn seeds (setting [3]) was -6.1%. In the experiment with NK Falkone corn seeds (setting [4]), the change in vivo at 50 µM is -6.2%.

Consider `CON1C(=O)C(C)=CC1O/C=C1/C(=O)NC2c3ccccc3CC12` (centres unmarked) [Ib-3, (3E)-3-[(4-methyl-5-oxo-1-methoxy-2H-pyrrol-2-yl)oxymethylene]-1,3a,4,8b-tetrahydroindeno[1,2-b]pyrrol-2-one], for which the change in vivo at 2 µM with NK Falkone corn seeds (setting [2]) was -4%. Moreover, the change in vivo at 10 µM with NK Falkone corn seeds (setting [3]) came to 3.4%. For the same compound, in the experiment with NK Falkone corn seeds (setting [4]), the change in vivo at 50 µM is -3.8% and the change in vivo at 250 µM was -5.5%.

On to `CC1=CC(O/C=C2/C(=O)NC3c4ccccc4CC23)N(C2CC2)C1=O` (centres unmarked) [Ib-5, (3E)-3-[(4-methyl-5-oxo-1-cyclopropyl-2H-pyrrol-2-yl)oxymethylene]-1,3a,4,8b-tetrahydroindeno[1,2-b]pyrrol-2-one], for which, in experiment [1] (0.01 mg/L), the “Germination (%)” value is on record as 68%. Besides, the “Germination (%)” value in experiment [1] (0.1 mg/L) came out at 73%. The change in vivo at 2 µM in the experiment on NK Falkone corn seeds (setting [2]) is -0.8%. The change in vivo at 10 µM in the experiment with NK Falkone corn seeds (setting [3]) was -4.3%. Further, in the experiment on NK Falkone corn seeds (setting [4]), the change in vivo at 50 µM is -3.9% and the change in vivo at 250 µM is -5.8%.

For the compound `CC1=CC(O/C=C2/C(=O)NC3c4ccccc4CC23)N(CC(F)(F)F)C1=O` (centres unmarked) [Ib-7, (3E)-3-[(4-methyl-5-oxo-1-(2,2,2-trifluoroethyl)-2H-pyrrol-2-yl)oxymethylene]-1,3a,4,8b-tetrahydroindeno[1,2-b]pyrrol-2-one], the figures for the “Germination (%)” value in experiment [1] (0.01 mg/L) and in experiment [1] (0.1 mg/L) were 46% and 26%, respectively. Moreover, the change in vivo at 2 µM in the experiment on NK Falkone corn seeds (setting [2]) turned out to be 1.5%. In the experiment with NK Falkone corn seeds (setting [3]), the change in vivo at 10 µM was -3%. Also, the change in vivo at 50 µM in the experiment with NK Falkone corn seeds (setting [4]) is -3.3%. Also, the change in vivo at 250 µM in the experiment on NK Falkone corn seeds (setting [4]) is -4.5%.

`CC1=CC(O/C=C2/C(=O)NC3c4ccccc4CC23)N(c2ccc(F)cc2)C1=O` (centres unmarked) [Ib-8, (3E)-3-[(4-methyl-5-oxo-1-(4-fluoro-phenyl)-2H-pyrrol-2-yl)oxymethylene]-1,3a,4,8b-tetrahydroindeno[1,2-b]pyrrol-2-one]: the change in vivo at 1 µM in the experiment with NK Falkone corn seeds (setting [5]) was -2.6%. In addition, the change in vivo at 5 µM with NK Falkone corn seeds (setting [6]) was -2.8%. Besides, the change in vivo at 25 µM with NK Falkone corn seeds (setting [7]) was found to be 2%. For the same compound, the change in vivo at 125 µM in the experiment with NK Falkone corn seeds (Zea mays, rate 125 μM, 15° C., negative value = faster germination, control 0.5% DMSO in water, read-out: T50 (% vs control)) was -2.3%.

As for `CC1=CC(O/C=C2/C(=O)NC3c4ccccc4CC23)N(c2cccc(F)c2)C1=O` (centres unmarked) [Ib-9, (3E)-3-[(4-methyl-5-oxo-1-(3-fluoro-phenyl)-2H-pyrrol-2-yl)oxymethylene]-1,3a,4,8b-tetrahydroindeno[1,2-b]pyrrol-2-one], the change in vivo at 0.2 µM in the experiment on NK Falkone corn seeds (Zea mays, rate 0.2 μM, 15° C., negative value = faster germination, control 0.5% DMSO in water, read-out: T50 (% vs control)) is -0.8%. In addition, the change in vivo at 1 µM in the experiment with NK Falkone corn seeds (setting [5]) was -4.8%. Further, the change in vivo at 5 µM in the experiment with NK Falkone corn seeds (setting [6]) was -5.6%. Also, the change in vivo at 25 µM in the experiment with NK Falkone corn seeds (setting [7]) is -5.2%.

Regarding `CC1=CC(O/C=C2/C(=O)NC3c4ccccc4CC23)N(c2cc(C(F)(F)F)cc(C(F)(F)F)c2)C1=O` (centres unmarked) [Ib-13, (3E)-3-[(4-methyl-5-oxo-1-(3,5-bistrifluoromethyl-phenyl)-2H-pyrrol-2-yl)oxymethylene]-1,3a,4,8b-tetrahydroindeno[1,2-b]pyrrol-2-one], in the experiment on NK Falkone corn seeds (setting [8]), the change in vivo at 0.2 µM was found to be 1%, the change in vivo at 1 µM is -3.6%, the change in vivo at 5 µM is -3.6% and the change in vivo at 25 µM was -2.7%.
